Laboratory results published in patent US6689754B1, “Heterocyclic glycyl β-alanine derivatives” (G. D. Searle & Co., priority 1998, dated 2004).
pIC50: −log10 of the molar value.

Legend:
[1] = molecular target: T1, Human fibrinogen receptor IIb/IIIa (Homo sapiens, UniProt P05106+P08514); experiment: Purified IIb/IIIa receptor assay: solid phase receptor assay, competition with biotinylated vitronectin; assay type: binding; conditions: 1 nM biotinylated vitronectin
T1 construct: Human fibrinogen receptor ([…]) was purified from outdated platelets; from tissue; host or cells: outdated human platelets
Source text: Purified IIb/IIIa Receptor Assay
Human fibrinogen receptor ([…]) was purified from outdated platelets. (Pytela, R., Pierschbacher, M. D., Argraves, S., Suzuki, S., and Rouslahti, E. “Arginine-Glycine-Aspartic acid adhesion receptors”, Methods in Enzymology 144(1987):475-489.) Human vitronectin was purified from fresh frozen plasma as described in Yatohgo, T., Izumi, M., Kashiwagi, H., and Hayashi, M., “Novel purification of vitronectin from human plasma by heparin affinity chromatography,” Cell Structure and Function 13(1988):281-292. Biotinylated human vitronectin was prepared by coupling NHS-biotin from Pierce Chemical Company (Rockford, Ill.) to purified vitronectin as previously described. (Charo, I. F., Nannizzi, L., Phillips, D. R., Hsu, M. A., Scarborough, R. M., “Inhibition of fibrinogen binding to GP IIb/IIIa by a GP IIIa peptide”, J. Biol. Chem. 266(3)(1991): 1415-1421.) Assay buffer, OPD substrate tablets, and RIA grade BSA were obtained from Sigma (St. Louis, Mo.). Anti-biotin antibody was obtained from Calbiochem (La Jolla, Calif.). Linbro microtiter plates were obtained from Flow Labs (McLean, Vs.). ADP reagent was obtained from Sigma (St. Louis, Mo.).
This assay is essentially the same reported in Niiya, K., Hodson, E., Bader, R., Byers-Ward, V. Koziol, J. A., Plow, E. F. and Ruggeri, Z. M., “Increased surface expression of the membrane glycoprotein IIb/IIIa complex induced by platelet activation: Relationships to the binding of fibrinogen and platelet aggregation”, Blood 70(1987):475-483. The purified human fibrinogen receptor ([…]) was diluted from stock solutions to 1.0 μg/mL in Tris-buffered saline containing 1.0 mM Ca^++, Mg^++, and Mn^++, pH 7.4 (TBS^+++). The diluted receptor was immediately transferred to Linbro microtiter plates at 100 μL/well (100 ng receptor/well). The plates were sealed and incubated overnight at 4° C. to allow the receptor to bind to the wells. All remaining Steps were at room temperature. The assay plates were emptied and 200 μL of 1% RIA grade BSA in TBS^+++ (TBS^+++/BSA) were added to block exposed plastic surfaces. Following a 2 hour incubation, the assay plates were washed with TBS^+++ using a 96 well plate washer. Logarithmic serial dilution of the test compound and controls were made starting at a stock concentration of 2 mM and using 2 nM biotinylated vitronectin in TBS^+++/BSA as the diluent. This premixing of labeled ligand with test (or control) ligand, and subsequent transfer of 50 μL aliquots to the assay plate was carried out with a CETUS Propette robot; the final concentration of the labeled ligand was 1 nM and the highest concentration of test compound was 1.0×10^−4 M. The competition occurred for two hours after which all wells were washed with a plate washer as before. Affinity purified horseradish peroxidase labeled goat anti-biotin antibody was diluted 1:3000 in TBS^+++/BSA and 125 μL were added to each well. After 30 minutes, the plates were washed and incubated with […] substrate in 100 mM/L citrate buffer, pH 5.0. The plate was read with a microtiter plate reader at a wavelength of 450 nm and when the maximum-binding control wells reached an absorbance of about 1.0, the final A450 were recorded for analysis. The data were analyzed using a macro written for use with the EXCELJ spreadsheet program. The mean, standard deviation, and % CV were determined for duplicate concentrations. The mean A450 values were normalized to the mean of four maximum-binding controls (no competitor added)(B-MAX). The normalized values were subjected to a four parameter curve fit algorithm, [Robard et al., Int. Atomic Energy Agency.

[2] = molecular target: T2, Human vitronectin receptor (αvβ3) (Homo sapiens, UniProt P05106+P06756); experiment: Vitronectin adhesion assay: solid phase receptor assay, competition with biotinylated vitronectin; assay type: binding; conditions: purified human vitronectin receptor; 1 nM biotinylated vitronectin
T2 construct: Human vitronectin receptor (αvβ3) was purified from human placenta; from tissue; host or cells: human placenta
Protocol: Vitronectin Adhesion Assay
Human vitronectin receptor (αvβ3) was purified from human placenta as previously described [Pytela et al., Methods in Enzymology, 144:475-489 (1987)]. Human vitronectin was purified from fresh frozen plasma as previously described [Yatohgo et al., Cell Structure and Function, 13:281-292 (1988)]. Biotinylated human vitronectin was prepared by coupling NHS-biotin from Pierce Chemical Company (Rockford, Ill.) to purified vitronectin as previously described [Charo et al., J. Biol. Chem., 266(3):1415-1421 (1991)]. Assay buffer, OPD substrate tablets, and RIA grade BSA were obtained from Sigma (St. Louis, Mo.). Anti-biotin antibody was obtained from Calbiochem (La Jolla, Calif.). Linbro microtiter plates were obtained from Flow Labs (McLean, Va.). ADP reagent was obtained from Sigma (St. Louis, Mo.).
This assay was essentially the same as previously reported [Niiya et al., Blood, 70:475-483 (1987)]. The purified human vitronectin receptor (αvβ3) was diluted from stock solutions to 1.0 μg/mL in Tris-buffered saline containing 1.0 mM Ca^++, Mg^++, and Mn^++, pH 7.4 (TBS^+++). The diluted receptor was immediately transferred to Linbro microtiter plates at 100 μL/well (100 ng receptor/well). The plates were sealed and incubated overnight at 4° C. to allow the receptor to bind to the wells. All remaining steps were at room temperature. The assay plates were emptied and 200 μL of 1% RIA grade BSA in TBS^+++ (TBS^+++/BSA) were added to block exposed plastic surfaces. Following a 2 hour incubation, the assay plates were washed with TBS^+++ using a 96 well plate washer. Logarithmic serial dilution of the test compound and controls were made starting at a stock concentration of 2 mM and using 2 nM biotinylated vitronectin in TBS^+++/BSA as the diluent. This premixing of labeled ligand with test (or control) ligand, and subsequent transfer of 50 μL aliquots to the assay plate was carried out with a CETUS Propette robot; the final concentration of the labeled ligand was 1 nM and the highest concentration of test compound was 1.0×10^−4 M. The competition occurred for two hours after which all wells were washed with a plate washer as before. Affinity purified horseradish peroxidase labeled goat anti-biotin antibody was diluted 1:3000 in TBS^+++/BSA and 125 μL were added to each well. After 30 minutes, the plates were washed and incubated with OPD/H2O2 substrate in 100 mM/L Citrate buffer, pH 5.0. The plate was read with a microtiter plate reader at a wavelength of 450 nm and when the maximum-binding control wells reached an absorbance of about 1.0, the final A450 were recorded for analysis. The data were analyzed using a macro written for use with the EXCELJ spreadsheet program. The mean, standard deviation, and % CV were determined for duplicate concentrations. The mean A450 values were normalized to the mean of four maximum-binding controls (no competitor added)(B-MAX). The normalized values were subjected to a four parameter curve fit algorithm [Rodbard et al., Int.

Compound | pIC50 [1] | pIC50 [2]
CC1(C)CN=C(Nc2cc(C(=O)NCC(=O)N[C@@H](CC(=O)O)c3cc(Cl)cc(Cl)c3O)c[nH]c2=O)NC1 [Example 47] | 5.17 | 9.00
O=C(O)C[C@@H](NC(=O)CNC(=O)c1c[nH]c(=O)c(NC2=NCCN2)c1)c1cc(Cl)cc(Cl)c1O [Example 48] | 4.55 | 8.37
